Here are results for 42 molecules from US10682319B2, “Necrosis inhibitors” (National Institute of Biological Sciences, Beijing, priority 2014, dated 2020).

The test system of this experiment is HT-29 cells. Nature of the experiment: Necrosis assay (TNF-α/Smac mimetic/z-VAD induced necrosis, cell viability by ATP level). The following applies: HT-29, TNF-α + Smac mimetic + z-VAD, 24 hrs, ATP level, read-out: EC50 (inhibition of necrosis in HT-29 cells). In kind it is cell-based. The procedure:
HT-29 cells were cultured in McCoy's 5 A culture medium (Invitrogen). On day one, HT-29 cells were plated in 96-well assay plates at density of 2,500-3,500 cells per well. On day two, necrosis were induced by adding 20 ng/ml TNF-α (T), 100 nM Smac mimetic (S), and […] z-VAD (Z). At the same time, […] compound from a chemical library of ˜200,000 compounds was delivered into each well. After 24 hrs treatment, cell viability was determined by measuring ATP level using the CellTiter-Glo Luminescent Cell Viability Assay kit. A CellTiter-Glo Assay (Promega) was performed according to the manufacturer's instructions Luminescence was recorded with a PerkinElmer EnSpire Multimode Plate Reader. Survived cells were normalized to those cells treated with DMSO. Nec-1 was used as a positive control for screening necrosis inhibitors. Data are represented as mean±standard deviation of duplicates
Dose-dependent inhibition of necrosis by the compounds in HT-29 cells were determined by measuring ATP levels as described above.

The mark [1] stands for this setting: Homo sapiens, HT-29, 24 h, values given as ranges in uM.

Structures are written as SMILES. Where two headings read alike, the source gives them in different places.

Take `CON(Cc1cc(F)c(F)cc1F)C(=O)C(C)(C)C(C)(F)F` [Compound S18]: the EC50 under setting [1] lay in the range of 1 to 100 µM.

On to `CCC(C)(C)C(=O)N(C)Cc1ccco1` [Compound 43, N-(furan-2-ylmethyl)-N,2,2-trimethylbutanamide], for which the EC50 (values given as ranges in nM) lay within 0.001 to 1 µM.

`CCC(C)(C)C(=O)N[C@@H](C(=O)NC)c1ccccc1` [Compound 122, (R)-2,2-dimethyl-N-(2-(methylamino)-2-oxo-1-phenylethyl)butanamide]: the EC50 under setting [1] was 1 to 100 µM.

With `CCC(C)(C)C(=O)N(Cc1ccccc1)OC` [Compound S4, N-benzyl-N-methoxy-2,2-dimethylbutanamide], the EC50 (values given as ranges in nM) fell in the range of 0.001 to 1 µM.

On to `CCC(C)(C)C(=O)N(C)Cc1cccc(Br)c1` [Compound 19, N-(3-bromobenzyl)-N,2,2-trimethylbutanamide], for which the EC50 under setting [1] lay in the range of 1 to 10 µM.

Take `CCC(C)(C)C(=O)N(C)C(COC)c1ccccc1` (stereo not drawn) [Compound 112, N-(2-methoxy-1-phenylethyl)-N,2,2-trimethylbutanamide]: the EC50 under setting [1] fell in the range of 1 to 100 µM.

Consider `CCC(C)(C)C(=O)N(C)Cc1cccc(F)c1F` [Compound S8, N-(2,3-difluorobenzyl)-N,2,2-trimethylbutanamide], for which, for the setting “values given as ranges in nM”, the EC50 fell in the range of 0.001 to 1 µM.

Consider `CCC(C)(C)C(=O)N(C)[C@@H](CO)c1ccccc1F` [Compound 148], for which, under setting [1], the EC50 lay in the range of 1 to 100 µM.

Take `CC(C)N(C(=O)N(C)Cc1cc(F)cc(F)c1F)C(C)C` [Compound 119, 1,1-diisopropyl-3-methyl-3-(2,3,5-trifluorobenzyl)urea]: the EC50 under setting [1] lay within 1 to 100 µM.

As to `CCC(C)(C)C(=O)N[C@@H](CC(=O)NC)c1ccccc1` [Compound 101, (S)-2,2-dimethyl-N-(3-(methylamino)-3-oxo-1-phenylpropyl)butanamide], the half-maximal effective concentration (EC50) under setting [1] was 1 to 100 µM.

For `C=CC(C)(C)C(=O)N(O)Cc1sccc1C` [Compound 145], under setting [1], the EC50 lay within 1 to 100 µM.

Consider `CN(Cc1cc(F)cc(F)c1F)C(=O)C1CCC1` [Compound 83, N-methyl-N-(2,3,5-trifluorobenzyl)cyclobutanecarboxamide], for which, under setting [1], the EC50 lay in the range of 1 to 10 µM.

With `CCC(C)(C)C(=O)N(C)Cc1ccccc1F` [Compound 13, N-(2-fluorobenzyl)-N,2,2-trimethylbutanamide], the EC50 (values given as ranges in nM) fell in the range of 0.001 to 1 µM.

On to `CCC(C)(C)C(=O)N(C)Cc1cccc(OC)c1` [Compound 20, N-(3-methoxybenzyl)-N,2,2-trimethylbutanamide], for which, under setting [1], the EC50 lay within 1 to 100 µM.

As for `CCC(C)(C)C(=O)N(C)C(CO)c1ccccc1` (stereo not drawn) [Compound 111, N-(2-hydroxy-1-phenylethyl)-N,2,2-trimethylbutanamide], the EC50 under setting [1] lay within 1 to 100 µM.

Turning to `CCC(C)(C)C(=O)N(Cc1ccccc1)OC(C)=O` [Compound S3, N-acetoxy-N-benzyl-2,2-dimethylbutanamide], the concentration giving a half-maximal response (EC50) (values given as ranges in nM) lay in the range of 0.001 to 1 µM.

With `CN(Cc1cc(F)cc(F)c1F)C(=O)C12CC3CC(CC(C3)C1)C2` [Compound 76, N-methyl-N-(2,3,5-trifluorobenzyl)adamantane-1-carboxamide], under setting [1], the EC50 was in the range of 1 to 100 µM.

Consider `CON(Cc1ccc(F)c(F)c1)C(=O)C(C)(C)C(C)(F)F` [Compound S17], for which the EC50 under setting [1] was in the range of 1 to 100 µM.

As for `CCC(C)(C)C(=O)NCc1cccc(Br)c1` [Compound 6, N-(3-bromobenzyl)-2,2-dimethylbutanamide], the EC50 under setting [1] lay within 1 to 10 µM.

Consider `CCC(C)(C)C(=O)N(O)Cc1ccc(F)c(F)c1` [Compound 95, N-(3,4-difluorobenzyl)-N-hydroxy-2,2-dimethylbutanamide], for which the EC50 (values given as ranges in nM) fell in the range of 0.001 to 1 µM.

On to `CCC(C)(C)C(=O)N(O)Cc1cn(C)cc1C` [Compound 144], for which, under setting [1], the EC50 was 1 to 100 µM.

On to `CCC(C)(C)C(=O)N(C)Cc1cnc2ccccc2c1` [Compound 47, N,2,2-trimethyl-N-(quinolin-3-ylmethyl)butanamide], for which, under setting [1], the EC50 is 1 to 100 µM.

As for `CCC(C)(C)C(=O)N[C@@H](CO)c1ccccc1` [Compound 109, (R)—N-(2-hydroxy-1-phenylethyl)-2,2-dimethylbutanamide], under setting [1], the EC50 was 1 to 100 µM.

As to `CN(Cc1cc(F)cc(F)c1F)C(=O)C1(c2ccccc2)CC1` [Compound 82, N-methyl-1-phenyl-N-(2,3,5-trifluorobenzyl)cyclopropanecarboxamide], under setting [1], the EC50 was in the range of 1 to 100 µM.

Consider `CCC(C)(C)C(=O)N(C)Cc1ccccc1OC` [Compound 15, N-(2-methoxybenzyl)-N,2,2-trimethylbutanamide], for which the EC50 under setting [1] is 1 to 100 µM.

Regarding `CCC(C)(C)C(=O)N[C@@H](CC(=O)NCc1ccccc1)c1ccccc1` [Compound 107, (S)—N-(3-(benzylamino)-3-oxo-1-phenylpropyl)-2,2-dimethylbutanamide], the 50% effective concentration (EC50) under setting [1] is 1 to 100 µM.

In the case of `CC(F)(F)C(C)(C)C(=O)N(O)Cc1cc(F)c(F)c(F)c1` [Compound S13], the EC50 under setting [1] fell in the range of 1 to 100 µM.

Consider `CCC(C)(C)C(=O)N(O)Cc1sc(C)cc1C` [Compound 138], for which the EC50 under setting [1] lay within 1 to 100 µM.

As for `CCC(C)(C)C(=O)N(Cc1cccc(F)c1)CC1CC1` [Compound 64, N-(cyclopropylmethyl)-N-(3-fluorobenzyl)-2,2-dimethylbutanamide], the EC50 under setting [1] was 1 to 100 µM.

In the case of `CCC(C)(C)C(=O)N(O)Cc1ccc(F)cc1` [Compound 94, N-(4-fluorobenzyl)-N-hydroxy-2,2-dimethylbutanamide], the EC50 (values given as ranges in nM) fell in the range of 0.001 to 1 µM.

Regarding `CCC(C)(C)C(=O)NCc1cc(F)cc(F)c1F` [Compound 70, 2,2-dimethyl-N-(2,3,5-trifluorobenzyl)butanamide], the EC50 (values given as ranges in nM) fell in the range of 0.001 to 1 µM.

On to `CCC(C)(C)C(=O)NCc1ccc(F)c(F)c1` [Compound 8, N-(3,4-difluorobenzyl)-2,2-dimethylbutanamide], for which, under setting [1], the EC50 lay within 1 to 10 µM.

With `CCC(C)(C)C(=O)N(C)Cc1ccc(F)c(F)c1` [Compound 91, N-(3,4-difluorobenzyl)-N,2,2-trimethylbutanamide], the EC50 (values given as ranges in nM) is 0.001 to 1 µM.

Turning to `CCN(Cc1ccc(F)cc1F)C(=O)C(C)(C)CC` [Compound 29, N-(2,4-difluorobenzyl)-N-ethyl-2,2-dimethylbutanamide], under setting [1], the EC50 lay within 1 to 10 µM.

With `CCC(C)(C)C(=O)N(O)Cc1ccc(F)c(F)c1F` [Compound 97, N-hydroxy-2,2-dimethyl-N-(2,3,4-trifluorobenzyl)butanamide], where the note is “values given as ranges in nM”, the EC50 lay in the range of 0.001 to 1 µM.

Regarding `CC1CCCC(C)N1C(=O)N(C)Cc1cc(F)cc(F)c1F` (stereo not drawn) [Compound 121, N,2,6-trimethyl-N-(2,3,5-trifluorobenzyl)piperidine-1-carboxamide], the EC50 (values given as ranges in nM) lay in the range of 0.001 to 1 µM.

Turning to `CCC(C)(C)C(=O)N(C)Cc1cc(F)ccc1Br` [Compound 56, N-(2-bromo-5-fluorobenzyl)-N,2,2-trimethylbutanamide], under setting [1], the EC50 was 1 to 10 µM.

For the molecule `CC(F)(F)C(C)(C)C(=O)N(O)Cc1cc(F)cc(F)c1F` [Compound S14], the EC50 under setting [1] is 1 to 100 µM.

As to `CCN(Cc1cc(F)cc(F)c1F)C(=O)C1CCCCC1` [Compound 74, N-ethyl-N-(2,3,5-trifluorobenzyl)cyclohexanecarboxamide], under setting [1], the EC50 was in the range of 1 to 100 µM.

As to `CCC(C)(C)C(=O)N(Cc1ccc(F)c(F)c1)OC` [Compound 132], under setting [1], the EC50 is 1 to 100 µM.

Consider `CCC(C)(C)C(=O)N(C)Cc1cccc(OC(F)(F)F)c1F` [Compound 33, N-(2-fluoro-3-(trifluoromethoxy)benzyl)-N,2,2-trimethylbutanamide], for which, under setting [1], the EC50 lay within 1 to 100 µM.

With `CCC(C)(C)C(=O)NC1(c2ccccc2)CC1` [Compound 54, 2,2-dimethyl-N-(1-phenylcyclopropyl)butanamide], the EC50 under setting [1] was 1 to 100 µM.
